From ChEMBL document CHEMBL3046660, “Synthesis, cytotoxic, and DNA binding studies of novel fluorinated condensed pyrano pyrazoles” (Med Chem Res, 2013)
Activity calls are given as the source filed them. The rule behind the calls is not given here.

Key:
A549 = assay: Cytotoxicity against Homo sapiens (human) A549 cells assessed as inhibition of cell viability by MTT assay; type: functional, cell-based
HeLa = assay: Cytotoxicity against Homo sapiens (human) HeLa cells assessed as inhibition of cell viability by MTT assay; type: functional, cell-based
MRC5 = assay: Cytotoxicity against Homo sapiens (human) MRC5 cells assessed as inhibition of cell viability by MTT assay; type: cell-based
[1] = Binding affinity to DNA assessed as peak current at 1 mM measured at potential of 1.3 V immediately after drug addition by cyclic voltammetry in presence of 1 mM cytosine
[2] = Binding affinity to DNA assessed as peak current at 1 mM measured at potential of 1.3 V at 3 hr after drug addition by cyclic voltammetry in presence of 3 mM cytosine
[3] = Binding affinity to DNA assessed as peak current at 1 mM measured at potential of 1.3 V at 30 min after drug addition by cyclic voltammetry in presence of 1 mM cytosine
[4] = Binding affinity to DNA assessed as peak current at 1 mM measured at potential of 0.45 V at 3 hr after drug addition by cyclic voltammetry in presence of 3 mM cytosine
[5] = Binding affinity to DNA assessed as peak current at 1 mM measured at potential of 0.45 V immediately after drug addition by cyclic voltammetry in presence of 1 mM cytosine
[6] = Binding affinity to DNA assessed as peak current at 1 mM at potential of 1.3 V by cyclic voltammetry
[7] = Binding affinity to DNA assessed as peak current at 1 mM at potential of 0.45 V by cyclic voltammetry

**Q.** With N#CC1=C(N)Oc2c(c(C(F)(F)F)nn2-c2ccc(F)cc2)C1c1cccs1 (stereo not given) as the compound, how does the IC50 (A549) read?
**A.** The IC50 was over 100 µM.

**Q.** And the IC50 (HeLa)?
**A.** The IC50 was over 100 µM.

**Q.** And the IC50 (MRC5)?
**A.** The IC50 was over 100 µM.

**Q.** For N#CC1=C(N)Oc2c(c(C(F)(F)F)nn2-c2ccccc2)C1c1ccc([N+](=O)[O-])cc1 (stereo not given), which IC50 (A549) is on record?
**A.** The IC50 was over 100 µM.

**Q.** What about the IC50 (HeLa) of the same compound?
**A.** Its IC50 is over 100 µM.

**Q.** What about the IC50 (MRC5) of the same compound?
**A.** The IC50 was over 100 µM.

**Q.** What does the source list for COc1cccc(C2C(C#N)=C(N)Oc3c2c(C(F)(F)F)nn3-c2ccccc2)c1 (stereo not given)?
**A.** IC50 (A549): > 100 µM; IC50 (HeLa): > 100 µM; IC50 (MRC5): > 100 µM

**Q.** What does the source list for N#CC1=C(N)Oc2c(c(C(F)(F)F)nn2-c2ccccc2)C1c1ccco1 (stereo not given)?
**A.** IC50 (A549): > 100 µM; IC50 (HeLa): > 100 µM; IC50 (MRC5): > 100 µM

**Q.** Which IC50 (A549) does the source give for N#CC1=C(N)Oc2c(c(C(F)(F)F)nn2-c2ccccc2)C1c1cccs1 (stereo not given) here?
**A.** The IC50 was 75.5 µM.

**Q.** And the IC50 (HeLa)?
**A.** Its IC50 is 74.1 µM.

**Q.** What about the IC50 (MRC5) of the same compound?
**A.** The IC50 was over 100 µM.

**Q.** What does the source list for N#CC1=C(N)Oc2c(c(C(F)(F)F)nn2-c2cccc(Cl)c2)C1c1ccc([N+](=O)[O-])cc1 (stereo not given)?
**A.** IC50 (A549): > 100 µM; IC50 (HeLa): > 100 µM; IC50 (MRC5): > 100 µM

**Q.** For COc1ccc(C2C(C#N)=C(N)Oc3c2c(C(F)(F)F)nn3-c2ccc(F)cc2)cc1 (stereo not given), which Activity [1] is on record?
**A.** The Activity was “inactive”.

**Q.** What about the IC50 (A549) of the same compound?
**A.** The IC50 was 10.3 µM.

**Q.** What about the Activity [2] of the same compound?
**A.** Its Activity is “inactive”.

**Q.** And the IC50 (HeLa)?
**A.** The IC50 was over 100 µM.

**Q.** And the Activity [3]?
**A.** The Activity was “Active”.

**Q.** What about the IC50 (MRC5) of the same compound?
**A.** The IC50 was over 100 µM.

**Q.** And the Activity [4]?
**A.** The Activity was “Active”.

**Q.** What about the Activity [5] of the same compound?
**A.** Its Activity is “Active”.

**Q.** And the Activity [6]?
**A.** Its Activity is “Active”.

**Q.** And the Activity [7]?
**A.** The Activity was “Active”.

**Q.** Which IC50 (A549) does the source give for N#CC1=C(N)Oc2c(c(C(F)(F)F)nn2-c2cccc(Cl)c2)C1c1ccco1 (stereo not given) here?
**A.** The IC50 was over 100 µM.

**Q.** And the IC50 (HeLa)?
**A.** Its IC50 is over 100 µM.

**Q.** What about the IC50 (MRC5) of the same compound?
**A.** Its IC50 is over 100 µM.

**Q.** For Cc1ccc(C2C(C#N)=C(N)Oc3c2c(C(F)(F)F)nn3-c2ccc(F)cc2)cc1 (stereo not given), which IC50 (A549) is on record?
**A.** Its IC50 is over 100 µM.

**Q.** And the IC50 (HeLa)?
**A.** The IC50 was over 100 µM.

**Q.** What about the IC50 (MRC5) of the same compound?
**A.** The IC50 was over 100 µM.

**Q.** For COc1ccc(C2C(C#N)=C(N)Oc3c2c(C(F)(F)F)nn3-c2cccc(Cl)c2)cc1 (stereo not given), which IC50 (A549) is on record?
**A.** The IC50 was 89.4 µM.

**Q.** What about the IC50 (HeLa) of the same compound?
**A.** The IC50 was over 100 µM.

**Q.** What about the IC50 (MRC5) of the same compound?
**A.** Its IC50 is over 100 µM.

**Q.** Which IC50 (A549) does the source give for N#CC1=C(N)Oc2c(c(C(F)(F)F)nn2-c2ccc(F)cc2)C1c1ccc([N+](=O)[O-])cc1 (stereo not given) here?
**A.** Its IC50 is over 100 µM.

**Q.** And the IC50 (HeLa)?
**A.** Its IC50 is over 100 µM.

**Q.** What about the IC50 (MRC5) of the same compound?
**A.** Its IC50 is over 100 µM.
